Test results from ChEMBL document CHEMBL1201862, “PubChem BioAssay data set” (2004).
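The compound was tested at five concentrations on cells cultured in 96-well plates, with a 48-hour exposure period. GI50: concentration for 50% inhibition of growth.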 The source made the active and inactive calls. Rule as the data show it: active = GI50 up to about 1.1 µM and inactive = higher.

Key:
Test in all cases: NCI-60 cell line screen, 48 h
HOP-92 = test system: HOP-92
A498 = test system: A498
M14 = test system: M14
LOX IMVI = test system: LOX IMVI
SK-MEL-2 = test system: SK-MEL-2
UACC-62 = test system: UACC-62
SNB-75 = test system: SNB-75
COLO 205 = test system: COLO 205
RPMI-8226 = test system: RPMI-8226
SK-MEL-5 = test system: SK-MEL-5
SF-539 = test system: SF-539
SK-MEL-28 = test system: SK-MEL-28
SF-295 = test system: SF-295
HOP-62 = test system: HOP-62
NCI-H460 = test system: NCI-H460
SF-268 = test system: SF-268
MOLT-4 = test system: MOLT-4
UO-31 = test system: UO-31
PC-3 = test system: PC-3
T47D = test system: T47D

Row | SMILES | GI50 (HOP-92) | GI50 (A498) | GI50 (M14) | GI50 (LOX IMVI) | GI50 (SK-MEL-2) | GI50 (UACC-62) | GI50 (SNB-75) | GI50 (COLO 205) | GI50 (RPMI-8226) | GI50 (SK-MEL-5) | GI50 (SF-539) | GI50 (SK-MEL-28) | GI50 (SF-295) | GI50 (HOP-62) | GI50 (NCI-H460) | GI50 (SF-268) | GI50 (MOLT-4) | GI50 (UO-31) | GI50 (PC-3) | GI50 (T47D)
1 | CN(C)CCNc1nc2ccccc2c2c1CCCC2 | 12.3 µM (inactive) | 17.2 µM (inactive) | 16.5 µM (inactive) | 17.8 µM (inactive) | 17.2 µM (inactive) | 16.4 µM (inactive) | 15.7 µM (inactive) | 22.9 µM (inactive) | 20.5 µM (inactive) | 15.3 µM (inactive) | 28.2 µM (inactive) | 17.7 µM (inactive) | 15.9 µM (inactive) | 16.5 µM (inactive) | 16 µM (inactive) | 32.1 µM (inactive) | 23.2 µM (inactive) | 11.2 µM (inactive) | 26.5 µM (inactive) | 16.7 µM (inactive)
2 | [O-][n+]1onc(-c2ccccc2)c1CN1CCOCC1 | > 100 µM (inactive) | 61.9 µM (inactive) | > 100 µM (inactive) | 71.8 µM (inactive) | > 100 µM (inactive) | 68.1 µM (inactive) | > 100 µM (inactive) | > 100 µM (inactive) | 76.6 µM (inactive) | > 100 µM (inactive) | > 100 µM (inactive) | > 100 µM (inactive) | > 100 µM (inactive) | > 100 µM (inactive) | > 100 µM (inactive) | > 100 µM (inactive) | 23.3 µM (inactive) | 77.1 µM (inactive) | 77.8 µM (inactive) | 71.6 µM (inactive)
3 | COc1ccccc1/C=C1\CCC(Cc2ccccc2)(CN(C)C)C1=O (centres undefined) | 27.5 µM (inactive) | 6.93 µM (inactive) | 3.13 µM (inactive) | 1.19 µM (inactive) | 6.53 µM (inactive) | 1.28 µM (inactive) | 3.32 µM (inactive) | 1.37 µM (inactive) | 0.612 µM (active) | 1.85 µM (inactive) | 1.52 µM (inactive) | 20.3 µM (inactive) | 1.34 µM (inactive) | 11.6 µM (inactive) | 0.698 µM (active) | 4.85 µM (inactive) | 1.05 µM (active) | 7.59 µM (inactive) | 1.03 µM (active) | 22.2 µM (inactive)
4 | Cc1ccc(C2SC(=N)Nc3c2c(C)nn3C(=O)c2ccccc2O)cc1 (centres undefined) | 0.475 µM (active) | 3.59 µM (inactive) | > 10 µM (inactive) | > 10 µM (inactive) | 6.31 µM (inactive) | 1.41 µM (inactive) | 2.54 µM (inactive) | > 10 µM (inactive) | > 10 µM (inactive) | 4.37 µM (inactive) | 5.68 µM (inactive) | > 10 µM (inactive) | – | > 10 µM (inactive) | 7.57 µM (inactive) | 9.44 µM (inactive) | 7.43 µM (inactive) | 6.87 µM (inactive) | > 10 µM (inactive) | > 10 µM (inactive)
5 | COC1C(CO)OC(n2c3c(Cl)cccc3c3c4c(c5c6cccc(Cl)c6[nH]c5c32)C(=O)NC4=O)C(O)C1O (centres undefined) | 0.215 µM (active) | 0.158 µM (active) | 0.333 µM (active) | 0.116 µM (active) | 0.386 µM (active) | 0.113 µM (active) | 0.234 µM (active) | 0.351 µM (active) | 0.242 µM (active) | 0.157 µM (active) | 0.195 µM (active) | 0.337 µM (active) | 0.286 µM (active) | 0.177 µM (active) | 0.177 µM (active) | 0.149 µM (active) | 0.0498 µM (active) | 0.296 µM (active) | 0.227 µM (active) | 0.154 µM (active)
6 | Cc1cnc2nc(-c3cccc4ccccc34)cc(O)c2c1 | 0.182 µM (active) | 0.000352 µM (active) | 0.000711 µM (active) | 0.000819 µM (active) | 0.000335 µM (active) | 0.000518 µM (active) | 0.000407 µM (active) | 0.000708 µM (active) | 0.000487 µM (active) | 0.000359 µM (active) | 0.000618 µM (active) | 0.000619 µM (active) | 0.000887 µM (active) | 0.0248 µM (active) | 0.00303 µM (active) | 0.000516 µM (active) | 0.000955 µM (active) | 0.00242 µM (active) | 0.00121 µM (active) | 26 µM (inactive)
7 | Cc1occc1C(=S)Nc1ccc(Cl)c(/C=N/OC(C)(C)C)c1 | 13 µM (inactive) | 20.4 µM (inactive) | 18.2 µM (inactive) | 13.1 µM (inactive) | 17.9 µM (inactive) | 14.3 µM (inactive) | 21.8 µM (inactive) | 17.5 µM (inactive) | 16.7 µM (inactive) | 17.3 µM (inactive) | 31.2 µM (inactive) | 17.7 µM (inactive) | 13.3 µM (inactive) | 19.9 µM (inactive) | 14.7 µM (inactive) | 22.6 µM (inactive) | 9.51 µM (inactive) | 13.9 µM (inactive) | 16 µM (inactive) | 16.5 µM (inactive)
